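Protocol summary: plate cells (96-well), add compound at 5 concentrations, incubate 48 h, interpolate endpoints linearly. GI50: concentration for 50% inhibition of growth. TGI marks complete inhibition of growth.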

The values below come from PubChem BioAssay (NCI).

Among the test systems are EKVX NSCLC; HCT-116 colon; HT29 colon; K-562 leukemia; MDA-MB-231 breast; NCI-H460 lung; RPMI-8226 leukemia; SF-268 CNS; SK-MEL-5 melanoma; UACC-257 melanoma.
Holding throughout (test): NCI-60 cell line screen, 48 h

In the case of `COCCOc1cnc2ccn([C@H](C)c3nnc4c(F)cc(-c5cnn(C)c5)cn34)c(=O)c2c1`, the GI50 in the assay with EKVX NSCLC, in the assay with HCT-116 colon, in the assay with HT29 colon, in the assay on K-562 leukemia, in the assay with MDA-MB-231 breast and with NCI-H460 lung was above 100 µM in each case. Also, the GI50 with RPMI-8226 leukemia, in the assay on SF-268 CNS, in the assay with SK-MEL-5 melanoma and in the assay on UACC-257 melanoma was above 100000 nM throughout. The TGI in the assay on EKVX NSCLC, in the assay with HCT-116 colon, with HT29 colon, with K-562 leukemia, in the assay on MDA-MB-231 breast and in the assay with NCI-H460 lung was above 100 µM each time. The TGI in the assay on RPMI-8226 leukemia, in the assay with SF-268 CNS, in the assay on SK-MEL-5 melanoma and in the assay on UACC-257 melanoma was above 100 µM in each case.
Take `COc1cc2ncn(-c3cc(OCCc4ccccc4)c(C(N)=O)s3)c2cc1OC`: the GI50 with EKVX NSCLC was above 25 µM; with HCT-116 colon, 24.6 µM; in the assay with HT29 colon, 13.6 µM; with K-562 leukemia, above 25 µM; with MDA-MB-231 breast, 24.6 µM; with NCI-H460 lung it was above 25 µM. Further, the GI50 was above 25000 nM with RPMI-8226 leukemia, above 25000 nM in the assay with SF-268 CNS, 11300 nM in the assay with SK-MEL-5 melanoma and above 25000 nM in the assay on UACC-257 melanoma. Further, the TGI with EKVX NSCLC, in the assay on HCT-116 colon, with HT29 colon, in the assay on K-562 leukemia, in the assay on MDA-MB-231 breast and in the assay with NCI-H460 lung was above 25 µM throughout. Besides, the TGI in the assay on RPMI-8226 leukemia, in the assay with SF-268 CNS, with SK-MEL-5 melanoma and in the assay on UACC-257 melanoma was above 25 µM in each case.
Take `COc1ccc2c(O)cc3c(c2c1)[C@H](CCl)CN3C(=O)c1cc2cc(NC(=O)CCN3CCOCC3)ccc2[se]1`: the GI50 in the assay on EKVX NSCLC, in the assay with HCT-116 colon, with HT29 colon, with K-562 leukemia, in the assay on MDA-MB-231 breast and in the assay on NCI-H460 lung was below 0.001 µM in each case. The GI50 was 1.49 nM in the assay on RPMI-8226 leukemia, below 1 nM in the assay with SF-268 CNS, below 1 nM in the assay on SK-MEL-5 melanoma and below 1 nM in the assay on UACC-257 melanoma. The TGI in the assay on EKVX NSCLC is 0.00471 µM; with HCT-116 colon it was above 3.25 µM; in the assay on HT29 colon, above 3.24 µM; in the assay on K-562 leukemia, above 10 µM; with MDA-MB-231 breast it was 0.105 µM; in the assay on NCI-H460 lung it was 1.09 µM. The TGI in the assay on RPMI-8226 leukemia was 0.0263 µM; with SF-268 CNS it was 0.0946 µM; in the assay on SK-MEL-5 melanoma, below 0.001 µM; with UACC-257 melanoma, 0.00319 µM.
With `Cc1cc(C2CC(O)C(CO)O2)cc2c(=O)[nH]c(N)nc12` (stereo not given), the GI50 in the assay with EKVX NSCLC, with HCT-116 colon, in the assay on HT29 colon, in the assay on K-562 leukemia, with MDA-MB-231 breast and in the assay with NCI-H460 lung was above 100 µM in each case. The GI50 in the assay on RPMI-8226 leukemia, in the assay with SF-268 CNS, in the assay on SK-MEL-5 melanoma and in the assay on UACC-257 melanoma was above 100000 nM in each case. Also, the TGI in the assay with EKVX NSCLC, with HCT-116 colon, in the assay with HT29 colon, in the assay with K-562 leukemia, in the assay with MDA-MB-231 breast and with NCI-H460 lung was above 100 µM in each case. In addition, the TGI with RPMI-8226 leukemia, in the assay with SF-268 CNS, with SK-MEL-5 melanoma and in the assay with UACC-257 melanoma was above 100 µM each time.
As to `COc1ccc(Nc2c3ccccc3nc3occ(Cl)c23)cc1`, the GI50 was 1.76 µM in the assay on EKVX NSCLC; below 0.01 µM with HCT-116 colon; below 0.0145 µM with HT29 colon; below 0.01 µM in the assay on K-562 leukemia; below 0.01 µM with MDA-MB-231 breast; below 0.01 µM in the assay on NCI-H460 lung. Also, the GI50 is 14.5 nM in the assay on RPMI-8226 leukemia, 36.8 nM in the assay with SF-268 CNS, below 10 nM with SK-MEL-5 melanoma and 15.9 nM in the assay with UACC-257 melanoma. The TGI in the assay with EKVX NSCLC is 6.89 µM; with HCT-116 colon it was 3.29 µM; with HT29 colon, above 34.8 µM; in the assay with K-562 leukemia it was above 35.1 µM; in the assay on MDA-MB-231 breast it was 0.0648 µM; with NCI-H460 lung, 8.18 µM. For the same compound, the TGI in the assay with RPMI-8226 leukemia is 0.571 µM; in the assay with SF-268 CNS, 21.5 µM; in the assay on SK-MEL-5 melanoma it was 0.521 µM; in the assay with UACC-257 melanoma it was 13.3 µM.
For `COc1ccc2ncn(-c3cc(O[C@H](C)c4ccccc4Cl)c(C(N)=O)s3)c2c1`, the GI50 is 0.183 µM in the assay on EKVX NSCLC; 0.021 µM with HCT-116 colon; 0.00813 µM in the assay with HT29 colon; 0.0145 µM with K-562 leukemia; 0.0454 µM with MDA-MB-231 breast; 0.0133 µM with NCI-H460 lung. Besides, the GI50 with RPMI-8226 leukemia is 16 nM; with SF-268 CNS it was 31.6 nM; with SK-MEL-5 melanoma it was 9.51 nM; in the assay with UACC-257 melanoma, 444 nM. For the same compound, the TGI in the assay on EKVX NSCLC is above 25 µM; with HCT-116 colon, 3.64 µM; in the assay with HT29 colon, 9.13 µM; in the assay with K-562 leukemia, above 25 µM; with MDA-MB-231 breast, above 17.3 µM; with NCI-H460 lung, 3.51 µM. Besides, the TGI in the assay on RPMI-8226 leukemia was 8.71 µM; in the assay on SF-268 CNS, above 25 µM; in the assay with SK-MEL-5 melanoma, 0.54 µM; with UACC-257 melanoma it was above 22.7 µM.
Turning to `[Au+].[Au+].[Au+].[c-]1nccn1Cc1ccccc1.[c-]1nccn1Cc1ccccc1.[c-]1nccn1Cc1ccccc1`, the GI50 in the assay with EKVX NSCLC was 11.6 µM; in the assay with HCT-116 colon, 6.68 µM; in the assay on HT29 colon it was 16.9 µM; in the assay on K-562 leukemia it was 3.82 µM; in the assay with MDA-MB-231 breast, 22 µM; with NCI-H460 lung, 11.6 µM. In addition, the GI50 in the assay on RPMI-8226 leukemia is 3900 nM; in the assay on SF-268 CNS, 3350 nM; in the assay on SK-MEL-5 melanoma it was 2930 nM; with UACC-257 melanoma it was 3710 nM. Besides, the TGI with EKVX NSCLC was 38.8 µM; in the assay on HCT-116 colon, 18.6 µM; in the assay on HT29 colon it was above 77.4 µM; in the assay with K-562 leukemia, 25 µM; with MDA-MB-231 breast it was 70.5 µM; with NCI-H460 lung, 54.5 µM. The TGI in the assay with RPMI-8226 leukemia is above 100 µM; in the assay on SF-268 CNS, 15.3 µM; with SK-MEL-5 melanoma, 6.15 µM; with UACC-257 melanoma it was 7.5 µM.
